According to US20240239786A1, “COMPOSITIONS AND METHODS FOR THE TREATMENT AND PREVENTION OF CANCER” (Yale University, priority 2021, published 2024):

Key:
T cells = experiment: PBMC T cell co-culture with PEO4 cells activated by CD3-CD28 beads; type: cell-based; conditions: PBMCs co-cultured with treated PEO4 cells
Text: FIG. 23 depicts representative effects of DB4 or triapine on peripheral blood mononuclear cells (PBMCs) containing T cells that were co-cultured with BRCA-mutated PEO1 and BRCA-wild type PEO4 cells and activated by CD3-CD28 beads. PEO1 cells suppressed CD8-positive activated T cells.
FIG. 24 depicts representative effects of DB4 or triapine on peripheral blood mononuclear cells (PBMCs) containing T cells that were co-cultured with BRCA-mutated PEO1 and BRCA-wild type PEO4 cells and activated by CD3-CD28 beads. PEO1 cells increased PD1 and LAG3-positive exhausted T cells.
Further experiments were conducted using PBMCs containing T cells that were co-cultured with PEO1 or PEO4 cells and activated by CD3-CD28 beads (FIG. 23). […] Both DB4 and triapine are RNR inhibitors. As such, although not bound by any particular theory, it was hypothesized that DB4 turned BRCA-wild type EOC into immunogenic “hot” tumors. DB4 promoted an increase in tumor neoantigens and the recruitment of tumor infiltrating lymphocytes (TILs) to tumor stroma, which enabled an effective antitumor response elicited by immune checkpoint inhibitors.

Rad51 foci = experiment: Nuclear Rad51 foci by confocal microscopy in SKOV3 cells; type: cell-based; conditions: for Rad51 foci, single agent: 30 μM DB4 or 25 μM olaparib
Text: Cells were transfected with the ISceI-expressing plasmid and then treated various concentrations of DB4 for 48 hr. Cells were harvested, stained with 7-AAD, and analyzed by flow cytometry for GFP-positive cells indicative of HR repair activity. […] Cells were transfected with the ISceI-expressing plasmid and treated with various concentrations of DB4. Cells were harvested, stained with 7-AAD, and stained, and analyzed by flow cytometry for GFP-positive cells indicative of NHEJ activity. Data are means±SD (N=3). *, p<0.05; **, p<0.01, compared with the 0 μM control of ISceI-transected cells. FIG. 7C depicts representative results of confocal imaging of olaparib-induced nuclear Rad51 foci in SKOV3 cells treated DB4. Cells were treated with 30 μM DB4 for 1 hr and then treated with 25 μM olaparib or 6 hr. Cells were fixed, permeabilized, and stained with the anti-Rad51 antibody and the Alexa Fluor 488-conjugated secondary antibody. Nuclei were counterstained with DAPI. Immunofluorescence of Rad51 foci and nuclei were visualized by confocal microscopy. […] Cells were also scored for nuclei containing equal or more than 10 distinct Rad51 foci to determine the percentage of cells positive for Rad51 foci. Data are means±SD (N=10). p<0.001, compared between indicated treatment groups. […] Cells were pre-treated with 30 μM DB4 and then treated with 25 μM olaparib for 24 hr. Protein was assessed by western blot analysis for the levels of γH2AX, p-H1, cyclin A2, p-CDK1/2, and HSC70. Cropped gel images of protein bands are presented. Full-length gel images are shown in FIG. 15. p-H1, cyclin A2, p-CDK1/2, and HSC70 bands were from re-probing the same blot. The γH2AX band was from a duplicated blot. […] The band density of γH2AX indicative of DSBs was quantified by densitometry. […]
To interrogate whether DB4 inhibited PARP inhibitor-induced DSB repair, nuclear Rad51 foci were determined in SKOV3 cells. […]
SKOV3 cells were grown for 24 hr prior to drug treatment. […] Nuclei containing equal or more than 10 Rad51 foci were counted to determine % Rad51-positive cells.

Row | Structure (SMILES) | T cell activation and exhaustion in co-culture with drug-treated PEO4 cells (T cells) | Rad51 foci, single agent (Rad51 foci) | olaparib-induced Rad51 foci (Rad51 foci; 30 μM DB4 1 hr then 25 μM olaparib)
1 | NC(=S)NN=Cc1ncccc1N [triapine, 3-aminopyridine-2-carboxaldehyde-thiosemicarbazone, reference compound] | suppressing T cell activation and enhancing T cell exhaustion | – | –
2 | O=C(c1cc(Cc2n[nH]c(=O)c3ccccc23)ccc1F)N1CCN(C(=O)C2CC2)CC1 [olaparib, reference compound] | – | induced a pronounced increase in Rad51 foci | –
3 | C=CCn1c(SCc2cccc(Cl)c2)nnc1C1CCN(Cc2nc3ccccc3s2)CC1 [DB4, 2-[(4-{4-allyl-5-[(3-chlorobenzyl)thio]-4H-1,2,4-triazol-3-yl}-1-piperidinyl)methyl]-1,3-benzothiazole] | suppressing T cell activation and enhancing T cell exhaustion | had no effects on Rad51 foci | significantly attenuated
